These are literature values, as cited in patent US11534589B2, “Iontophoretic microneedle device” (LTS LOHMANN THERAPIE-SYSTEME AG, priority 2017, dated 2022).

Where two headings read alike, the source gives them in different places.

For data set [1] the following is noted: maltose microneedles combined with iontophoresis, hairless rats.

Turning to `CN(Cc1cnc2nc(N)nc(N)c2n1)c1ccc(C(=O)N[C@@H](CCC(=O)O)C(=O)O)cc1` [methotrexate], the Increase in delivery in data set [1] was 25 fold.

For `CNS(=O)(=O)Cc1ccc2[nH]cc(CCN(C)C)c2c1.O=C(O)CCC(=O)O` [sumatriptan, 3-[2-(dimethylamino)ethyl]-N-methyl-indole-5-methane-sulfonamide succinate (1:1)], the Bioavailability by setting is: (nasal spray) no more than 14%; (oral tablet) “not more than 15%”.
